{
  "source": "patent US20060276537A1",
  "about": "“Use of ladostigil for the treatment of multiple sclerosis” (priority 2005, published 2006)",
  "system": "acetylcholinesterase (AChE)",
  "assay": "Cholinesterase assay (modified Ellman, ATC substrate) in brain and blood of treated EAE mice",
  "type": "in vivo",
  "conditions": "for Blood AChE U/ml / Blood AchE % inhibition: blood of EAE mice; for Brain AChE U/g (Total ChE) / Brain AchE % inhibition: brain of EAE mice",
  "description": "From the mice of Example 2, acetylcholinesterase (AChE) and butyrylcholinesterase (BChE) activities were determined by a modification of Ellman's spectophotometric method using acetyltiocholine (ATC) and butyryltiocholine (BTC) as substrates.\nHomogenate of 100 mg brain tissue in 1 ml 100 mM phosphate buffer pH=8.0 was prepared. 0.4 ml of crude homogenate was added to 1.2 ml pre-warmed 4 mM 5,5′-Dithiobis(2-nitrobenzoic acid) (DTNB or Ellman's reagant); 30 μl from this mixture were added to 210 μl pre-warmed (28° C.) 50 mM phosphate buffer in a microplate; and the reaction was started by addition of 10 μl ATC or BTC (final concentration=1 mM) or water (for the blank reaction) The increase in optical density (OD) at 412 nm was monitored for 3 minutes and the slope of the straight line obtained by linear regression provided the activity in terms of ΔOD/min using SOFTMAX® software. Blank reaction was subtracted.\nConversion of ΔOD/min into Enzyme Activity was Performed as Follows: Unit enzyme/gram tissue=OD/min*0.25/10.54*4*1000/30*11\nThe same procedure was performed as with brain homogenate using 50 μl of ¼ hemolysate/DTNB mixture.\nEnzyme activity in the blood was calculated in units/1 ml whole blood.\nAChE activity was calculated as follows: AChE activity=ΔOD/min (determined with ATC)−ΔOD/min (determined with BTC)/0.7\n0.7=BChE activity on BTC/BChE activity on ATC. It was determined by using 1.25-10^−6M BW281C51 to inhibit AChE and with ATC and BTC as substrates.",
  "key": {"[1]": {"conditions": "51 and 70.1 mg/kg/day, doses effective in ameliorating EAE"}},
  "note": "Marks after values point to notes of the source that are not given here.",
  "data": [
    {"compound": "C#CCN[C@@H]1CCc2ccc(OC(=O)N(C)CC)cc21", "note": "[Ladostigil, R(+)-6-(N-methyl,N-ethyl-carbamoyloxy)-N′-propargyl-1-aminoindan]", "values": [
      {"measurement": "inhibition of AChE in blood", "setting": "[1]", "value": "60-65%"},
      {"measurement": "inhibition of AChE in brain", "setting": "[1]", "value": "47-52%"},
      {"measurement": "Blood AChE U/ml", "setting": "10.2 mg/kg salt", "value": "0.85 +/− 0.17 U/ml"},
      {"measurement": "Blood AchE % inhibition", "setting": "10.2 mg/kg salt", "value": "37.4* %"},
      {"measurement": "Blood AChE U/ml", "setting": "25.5 mg/kg salt", "value": "0.73 +/− 0.12 U/ml"},
      {"measurement": "Blood AchE % inhibition", "setting": "25.5 mg/kg salt", "value": "46.3* %"},
      {"measurement": "Blood AChE U/ml", "setting": "51 mg/kg salt", "value": "0.54 +/− 0.1 U/ml"},
      {"measurement": "Blood AchE % inhibition", "setting": "51 mg/kg salt", "value": "60.2* %"},
      {"measurement": "Blood AChE U/ml", "setting": "70.1 mg/kg salt", "value": "0.48 +/− 0.1 U/ml"},
      {"measurement": "Blood AchE % inhibition", "setting": "70.1 mg/kg salt", "value": "64.9* %"},
      {"measurement": "Brain AChE U/g (Total ChE)", "setting": "10.2 mg/kg salt", "value": "8.77 +/− 1.23 U/g"},
      {"measurement": "Brain AchE % inhibition", "setting": "10.2 mg/kg salt", "value": 13.4, "unit": "%"},
      {"measurement": "Brain AChE U/g (Total ChE)", "setting": "25.5 mg/kg salt", "value": "7.42 +/− 1.29 U/g"},
      {"measurement": "Brain AchE % inhibition", "setting": "25.5 mg/kg salt", "value": "26.8* %"},
      {"measurement": "Brain AChE U/g (Total ChE)", "setting": "51 mg/kg salt", "value": "5.41 +/− 0.6 U/g"},
      {"measurement": "Brain AchE % inhibition", "setting": "51 mg/kg salt", "value": "46.6* %"},
      {"measurement": "Brain AChE U/g (Total ChE)", "setting": "70.1 mg/kg salt", "value": "4.85 +/− 0.65 U/g"},
      {"measurement": "Brain AchE % inhibition", "setting": "70.1 mg/kg salt", "value": "52.2* %"}
    ]}
  ]
}
